According to ChEMBL document CHEMBL4052622, “Geldanamycin-inspired compounds induce direct trans-differentiation of human mesenchymal stem cells to neurons” (Eur J Med Chem, 2017):
Calls of active or inactive are those of the source. No cut-off for these calls is given here.

Legend:
Format in all cases: functional, cell-based
MSC [1] = experiment: Induction of differentiation of human umbilical cord tissue-derived MSC to neurons assessed as upregulation of agrin levels at 10 uM after 11 days by End PCR analysis
MSC [2] = experiment: Induction of differentiation of human umbilical cord tissue-derived MSC to neurons assessed as phenotypic changes in cell at 10 uM after 11 days by End PCR analysis
MSC [3] = experiment: Induction of differentiation of human umbilical cord tissue-derived MSC to neurons assessed as upregulation of nestin levels at 10 uM after 11 days by End PCR analysis
MSC [4] = experiment: Induction of differentiation of human umbilical cord tissue-derived MSC to neurons assessed as upregulation of RTN4 levels at 10 uM after 11 days by End PCR analysis

Compound	Activity (MSC [1])	Activity (MSC [2])	Activity (MSC [3])	Activity (MSC [4])
CO[C@@H](C[C@H](C)CO)[C@H](O)[C@@H](C)C(=O)N1C(=O)OC[C@H]1Cc1ccccc1	Active	Active	Active	Active
CO[C@@H]([C@H](C[C@H](C)CN=[N+]=[N-])OC)[C@@H](C)C(=O)N1C(=O)OC[C@H]1Cc1ccccc1	Active		inactive	Active
CO[C@H]1[C@@H](OC)C[C@H](C)Cn2cc(nn2)COC(=O)/C(C)=C/CC[C@H](OC)[C@H](CO)OC(=O)[C@@H]1C	Active	Active	Active	Active
CO[C@H]1[C@@H](OC)C[C@H](C)Cn2cc(nn2)COC(=O)/C(C)=C/CC[C@H](OC)[C@H](CO[Si](C)(C)C(C)(C)C)OC(=O)[C@@H]1C	Active		Active	Active
CO[C@H]1[C@@H](OC)C[C@H](C)Cn2cc(nn2)COC(=O)/C(C)=C/C=C\[C@H](OC)[C@H](CO[Si](C)(C)C(C)(C)C)OC(=O)[C@@H]1C	Active		Active	Active
